Test results published in US11505547B2, “Compounds” (STEP PHARMA S.A.S., priority 2017, dated 2022).
pIC50: −log10 of the molar value.

Assays:
human CTPS1 [1] = biological target: T1, human CTPS1 (Homo sapiens, UniProt P17812); test: RapidFire/MS-based enzyme selectivity assay, human CTPS1; assay type: biochemical; settings: RapidFire/MS IC50s, human CTPS1 versus CTPS2
T1 construct: purchased Proteros biostructures GmbH
T1 sequence (P17812 1-591): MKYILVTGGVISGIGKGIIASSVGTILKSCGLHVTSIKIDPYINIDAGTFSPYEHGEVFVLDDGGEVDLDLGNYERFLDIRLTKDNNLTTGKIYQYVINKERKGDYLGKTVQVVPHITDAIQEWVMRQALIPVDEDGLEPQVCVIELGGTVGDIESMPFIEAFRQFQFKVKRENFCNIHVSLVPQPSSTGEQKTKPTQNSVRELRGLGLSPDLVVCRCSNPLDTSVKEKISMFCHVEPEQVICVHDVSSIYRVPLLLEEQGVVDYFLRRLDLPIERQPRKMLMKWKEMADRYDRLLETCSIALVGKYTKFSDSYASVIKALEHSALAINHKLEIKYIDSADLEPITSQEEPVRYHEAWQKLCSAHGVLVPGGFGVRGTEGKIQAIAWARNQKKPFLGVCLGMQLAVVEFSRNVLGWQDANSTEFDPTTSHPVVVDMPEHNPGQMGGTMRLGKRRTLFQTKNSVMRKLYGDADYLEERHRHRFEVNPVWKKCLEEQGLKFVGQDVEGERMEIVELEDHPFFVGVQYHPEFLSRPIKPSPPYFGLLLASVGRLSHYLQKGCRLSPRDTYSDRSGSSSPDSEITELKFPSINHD
Protocol: Biological Example 2—RapidFire/MS-Based Enzyme Selectivity Assays
Human CTPS1 Versus CTPS2 Selectivity Assessment by RapidFire/MS Analysis.
The enzyme inhibitory activities against each target isoform of interest were determined for the compounds of the invention using an optimised RapidFire high-throughput mass spectrometry (RF/MS) assay format. RF/MS assays for both human CTPS1 and CTPS2 were performed in assay buffer consisting of 50 mM HEPES (Merck), 20 mM MgCl2, 5 mM KCl, 1 mM DTT, 0.01% Tween-20, pH to 8.0 accordingly. All reagents were from Sigma-Aldrich unless specified otherwise. Human full-length active C-terminal FLAG-His-tag CTPS1 (UniProtKB-P17812, CTPS[1-591]-[…]) was obtained from Proteros biostructures GmbH. Human full length active C-terminal FLAG-His-Avi tagged CTPS2 (UniProtKB-Q9NRF8, CTPS2 [1-586]-[…]) was obtained from Harker Bio.
Human CTPS (1 or 2) protein was prepared in 1× assay buffer to the final working protein concentration required for the reaction. A 2 uL volume per well of 2×CTPS (1 or 2) protein was mixed with 40 nL of compound using acoustic (ECHO) delivery and incubated for 10 minutes at 25° C. Each isoform enzymatic reaction was subsequently initiated by addition of 2 uL per well of a 2× substrate mix in assay buffer. For hCTPS1: ATP (0.3 mM), UTP (0.2 mM), GTP (0.07 mM) and L-glutamine (0.1 mM). For hCTPS2: ATP (0.1 mM), UTP (0.04 mM), GTP (0.03 mM) and L-glutamine (0.1 mM). Each mixture was incubated for an appropriate amount of time per isoform within the determined linear phase of the reaction at 25° C. A 60 uL volume of stop solution (1% formic acid with 0.5 uM ^13C9-^15N3-CTP in H2O) was added and the plate immediately heat-sealed and centrifuged for 10 minutes at 4,000 rpm. Following centrifugation, plates were loaded onto the Agilent RapidFire microfluidic solid phase extraction system coupled to an API4000 triple quadrupole mass spectrometer (RF/MS) for analysis.
In all cases, the enzyme converts UTP to CTP. […] Readout for data analysis was calculated as the ratio between the peak area of the product CTP and the internal standard ^13C9-^15N3-CTP. […]
(R=ratio/readout, P=product signal area, IS=internal standard signal area) […]
(I=Inhibition, Rneg=median of negative control readout values, Rpos=median of positive control readout values, Rsample=sample readout value)
Percentage inhibition was then plotted against compound concentration, and the 50% inhibitory concentration ([…]) was determined from the resultant concentration-response curve.
Fold selectivity between CTPS1 and CTPS2 was subsequently calculated according to the following equation: […]

human CTPS1 [2] = biological target: T1, human CTPS1; test: Human CTPS1 enzyme inhibition, ADP-Glo Max assay; assay type: biochemical; settings: human full length CTPS1, read-out: CTPS1 (Human CTPS1 Enzyme Inhibition data grouped by potency range, IC50)
How it was run: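 Full-length C-terminal FLAG-His-tagged protein in 50 mM Tris pH 8.0, 10 mM MgCl2, 0.01% Tween-20 and 2 mM L-cysteine, preincubated with compound for 10 min at 25 °C. The substrate mix held ATP 0.31 mM, GTP 0.034 mM, UTP 0.48 mM and L-glutamine 0.186 mM, and the reaction ran within its linear phase. ADP was read by ADP-Glo Max luminescence; IC50 from the % inhibition curve.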

Compound | Selectivity (fold selectivity between CTPS1 and CTPS2) (human CTPS1 [1]) | pIC50 (human CTPS1 [2])
CCOc1cncc(-c2ccc(C(=O)NC(CC)c3csc(NS(=O)(=O)C4CC4)n3)c(F)c2)n1 (single isomer, unassigned) [Example R71, N-(1-(2-(cyclopropanesulfonamido)thiazol-4-yl)propyl)-4-(6-ethoxypyrazin-2-yl)-2-fluorobenzamide] | +++ (>60 fold (+++)) | > 7.00
CCOc1cncc(-c2ccc(C(=O)NC(CCOC)c3csc(NS(=O)(=O)C4CC4)n3)c(F)c2)n1 (single isomer, unassigned) [Example R92, N-(1-(2-(cyclopropanesulfonamido)thiazol-4-yl)-3-methoxypropyl)-4-(6-ethoxypyrazin-2-yl)-2-fluorobenzamide] | +++ (>60 fold (+++)) | > 7.00
CCOc1cncc(-c2ccc(C(=O)NC(C)(C)c3csc(NS(=O)(=O)C4CC4)n3)c(F)c2)n1 [Example R6, N-(2-(2-(cyclopropanesulfonamido)thiazol-4-yl)propan-2-yl)-4-(6-ethoxypyrazin-2-yl)-2-fluorobenzamide] | ++ (>30-60 fold (++)) | > 7.00
